System: adult human keratinocytes
Assay: In-vitro scratch wound-healing assay
Type: cell-based
Settings: for closure of in vitro scratch wound gap: day 4, Example 9, FIG. 8B
Method: Human neonatal or adult keratinocytes late population doubling time (PD≧15) were trypsinized and seeded onto 6-well tissue culture plates (Falcon) at a density of 3×10^6 cells/well in HKGS (Cascade Biologics) and EpiLife (Cascade Biologics). After an overnight incubation in a 5% CO2 and 37° C. chamber, a bisecting scratch was made with a sterile p1000 micropipette tip and the cells were washed with PBS twice, and then replaced with the basal medium without the supplement for the duration of the assay.
Total extract, fractions and compounds of Rhizoma arisaematis were diluted in the basal medium without the supplement and added to the wells. EGF (Sigma) at 50 ng/mL was used as positive control, and DMSO (0.1%) was used as a vehicle control.
For each scratch, two consecutive fields were selected using the following criteria: relatively little cell debris within the scratch; even scratch, with straight edges; both edges visible under a single field using the 10× objective; fields not too close to either end of the scratch. The pictures were taken from day 1 for five consecutive days. The medium and the extracts were replenished daily for the duration of the assay.
To examine the efficacy of the herb Rhizoma arisaematis (RA) in in vitro closure of scratch wounds, human keratinocytes were incubated with the crude extract (RA-T) or different fractions of RA (100 μg/mL).
To examine the efficacy of the WA sub-fractions of RA in closing in vitro scratch wounds, RA-WA1 and RA-WA2 (1 μg/mL and 10 μg/mL) were tested using human keratinocytes. The scratch assay was performed using the procedures as described in Example 1. RA-WA1 and RA-WA2 at 1 μg/mL and 10 μg/mL were evaluated for their ability to close in vitro wound gap.
To examine the wound-healing effects, 3-O-(9,12-octadecadienoyl)-glyceryl-β-D-galactopyranoside (G192-C07) isolated from the BU fraction of RA (FIG. 8A) was incubated with human keratinocytes. The scratch assay was performed as described in Examples 1 and 5. G192-C07 at 1, 3, 10, and 30 μg/mL were evaluated for their ability to close in vitro wound gap. Epidermal growth factor (EGF, 10 ng/mL) and 0.1% DMSO were used as a positive and a vehicle control, respectively. Photographs of the wounds were taken immediately after the scratch and on day 4.

Compound	closure of in vitro scratch wound gap (1 μM)	closure of in vitro scratch wound gap (3 μM)	closure of in vitro scratch wound gap (10 μM)	closure of in vitro scratch wound gap (30 μM)	closure of in vitro scratch wound gap (positive control, 10 ng/mL)	closure of in vitro scratch wounds (positive control, 50 ng/mL, Example 1, FIG. 1)
CCCCC/C=C\C/C=C\CCCCCCCC(=O)OCC(O)CO[C@@H]1O[C@H](CO)[C@H](O)[C@H](O)[C@H]1O (stereo partly drawn) [Compound G192-C07, 3-O-(9Z,12Z-octadecadienoyl)-glyceryl-β-D-galactopyranoside]	partly closed the wound gap	partly closed the wound gap	partly closed the wound gap	fully closed the wounds by day 4		
EGF: Epidermal growth factor (Sigma), positive control (NSDSECPLSHDGYCLHDGVCMYIEALDKYACNCVVGYIGERCQYRDLKWWELR; Epidermal growth factor; UniProt P01133 971-1023, looked up) [reference compound]					fully closed the wounds by day 4	closed the wounds by day 2

Reference: patent publication US20150004261A1, “Rhizoma Arisaematis Extracts and Uses Thereof for Wound-Healing Effects” (THE HONG KONG UNIVERSITY OF SCIENCE AND TECHNOLOGY, priority 2011, published 2015)
